Laboratory results as given in paper PMC8368026, “Theaflavin binds to a druggable pocket of TMEM16A channel and inhibits lung adenocarcinoma cell viability” (The Journal of Biological Chemistry, 2021).
Where a chain is given by its changes, count along the chain named.

Legend:
Format in all cases: cell-based
TMEM16A [1] = molecular target: T1, TMEM16A (Mus musculus, UniProt Q8BHY3, R535A); experiment: whole-cell patch clamp of mutant channel in HEK293T cells, […] TF; settings: HEK-293T
T1 construct: gene Ano1; mouse TMEM16A (NM_178642.5)
T1 sequence (Q8BHY3 1-960 R535A): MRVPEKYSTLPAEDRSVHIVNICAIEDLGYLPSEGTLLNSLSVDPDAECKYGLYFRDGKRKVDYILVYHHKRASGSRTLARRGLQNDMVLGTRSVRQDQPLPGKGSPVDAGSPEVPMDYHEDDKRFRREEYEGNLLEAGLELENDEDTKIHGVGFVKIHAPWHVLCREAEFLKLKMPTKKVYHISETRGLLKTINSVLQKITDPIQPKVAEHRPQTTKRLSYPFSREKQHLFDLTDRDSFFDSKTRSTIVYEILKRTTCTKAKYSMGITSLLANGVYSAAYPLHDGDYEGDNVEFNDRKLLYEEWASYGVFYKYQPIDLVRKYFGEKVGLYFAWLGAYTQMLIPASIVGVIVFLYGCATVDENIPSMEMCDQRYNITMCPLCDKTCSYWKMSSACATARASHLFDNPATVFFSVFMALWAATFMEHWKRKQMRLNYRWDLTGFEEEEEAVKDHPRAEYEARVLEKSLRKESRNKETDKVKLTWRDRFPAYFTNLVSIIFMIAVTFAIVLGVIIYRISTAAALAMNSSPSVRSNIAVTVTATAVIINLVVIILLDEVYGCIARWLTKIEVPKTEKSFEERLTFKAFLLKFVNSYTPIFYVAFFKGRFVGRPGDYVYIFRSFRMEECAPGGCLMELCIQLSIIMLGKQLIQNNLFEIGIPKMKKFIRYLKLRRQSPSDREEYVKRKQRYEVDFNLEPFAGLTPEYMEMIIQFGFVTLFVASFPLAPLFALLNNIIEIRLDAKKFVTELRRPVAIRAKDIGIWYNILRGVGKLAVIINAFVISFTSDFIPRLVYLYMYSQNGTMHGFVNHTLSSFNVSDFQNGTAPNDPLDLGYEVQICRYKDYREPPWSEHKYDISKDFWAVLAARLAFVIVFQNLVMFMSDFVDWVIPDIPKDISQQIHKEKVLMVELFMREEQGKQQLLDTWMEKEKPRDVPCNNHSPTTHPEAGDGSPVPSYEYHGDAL

TMEM16A [2] = molecular target: T2, TMEM16A (Mus musculus, UniProt Q8BHY3, K603A); experiment: as above; settings: HEK-293T
T2 construct: gene Ano1; mouse TMEM16A (NM_178642.5)
T2 sequence (Q8BHY3 1-960 K603A): T1 sequence (Q8BHY3 1-960 R535A) with A535R, K603A

TMEM16A [3] = molecular target: T3, TMEM16A (Mus musculus, UniProt Q8BHY3, T539A); experiment: as above; settings: HEK-293T
T3 construct: gene Ano1; mouse TMEM16A (NM_178642.5)
T3 sequence (Q8BHY3 1-960 T539A): T1 sequence (Q8BHY3 1-960 R535A) with A535R, T539A

TMEM16A [4] = molecular target: T4, TMEM16A (Mus musculus, UniProt Q8BHY3); experiment: whole-cell patch clamp, recombinant channel in HEK293T cells; supported by mutagenesis
T4 construct: gene Ano1; mouse TMEM16A (NM_178642.5)
T4 sequence (Q8BHY3 1-960): T1 sequence (Q8BHY3 1-960 R535A) with A535R

- inhibition at 10 µM (TMEM16A [1]): 71%
- inhibition at 10 µM (TMEM16A [2]): 54%
- inhibition at 10 µM (TMEM16A [3]): 51%
SMILES: O=c1c(O)cc([C@H]2Oc3cc(O)cc(O)c3C[C@H]2O)cc2c([C@H]3Oc4cc(O)cc(O)c4C[C@H]3O)cc(O)c(O)c12 [TF, theaflavin]
- IC50 (TMEM16A [4]): 0.75 ± 0.13 µM
